System: paclitaxel-treated rats
Assay: Paclitaxel-induced pain hypersensitivity in rats
Format: in vivo, rat
Details: intrathecal 5 μg pregabalin, 1 μg peptides
Experimental: To induce neuropathic pain, rats and mice were intraperitoneally injected with paclitaxel (2 mg/kg; TEVA Pharmaceuticals, North Wales, Pa.) every 2 days for a total of 4 injections (days 1, 3, 5 and 7; total dose, 8 mg/kg), as described previously (Polomano et al., 2001). Animals in the control group were intraperitoneally injected with the vehicle (Cremophor EL/ethanol, 1:1) on the same 4 days. The presence of tactile allodynia was confirmed 10 to 12 days after drug treatment. Intrathecal catheters were implanted in some paclitaxel-treated rats during isoflurane-induced anesthesia. Briefly, a small puncture was made in the atlanto-occipital membrane of the cisterna magna and inserted a PE-10 catheter with the caudal tip reaching the lumbar enlargement of the spinal cord (Chen et al., 2014a; Xie et al., 2016).
Behavioral assessment of nociception: To measure tactile allodynia, mice or rats were individually placed on a mesh floor within a suspended chamber. […]
To quantify the mechanical nociceptive threshold in rats, the paw pressure (Randall-Selitto) test was conducted on the left hindpaw using an analgesiometer (Ugo Basile, Varese, Italy). […] When the rat withdrew its paw or vocalized, the pedal was immediately released, and the withdrawal threshold was recorded (Chen et al., 2014a). […]
To assess the thermal sensitivity of rats, the were placed individually on the glass surface of a thermal testing apparatus (IITC Life Sciences, Woodland Hills, Calif.). […] The paw withdrawal latency was recorded with a timer, and the hindpaw was tested twice to obtain an average time. […] After the threshold temperature was recorded, the mice were immediately removed from the plate. The heat threshold measurement was repeated 30 min later, and the average of the 2 recorded temperatures was considered as the heat threshold. The cold threshold was measured by cooling the plate from 30° C. at a rate of 6° C./min until nocifensive behaviors were observed. […]

YGRKKRRQRRRVSGLNPSLWSIFGLQFILLWLVSGSRHYLW (a2d1 peptide) [α2δ-1Tat peptide, 30-amino-acid peptide mimicking the C-terminal domain of α2δ-1 fused to the cell-penetrating peptide Tat]
paclitaxel-induced pain hypersensitivity (tactile allodynia, mechanical and thermal hyperalgesia): markedly attenuated
